Experimental data from the NIST ThermoML archive (doi:10.1021/je020215j).
Numbers after ± are expanded uncertainties.

Settings: Crystal

With `O=[N+]([O-])c1cnc(O)nc1O` [2,4-pyrimidinedione, 5-nitro-] the “vapor or sublimation pressure” value (431.25 K) was 7.18e-06 ± 7.4e-07 kPa, the “vapor or sublimation pressure” value (433.14 K) was 8.41e-06 ± 8.6e-07 kPa and the “vapor or sublimation pressure” value (434.95 K) was 9.75e-06 ± 1e-06 kPa. For the same compound, the “vapor or sublimation pressure” value (434.98 K) was 1.014e-05 ± 1e-06 kPa, the “vapor or sublimation pressure” value (436.81 K) was 1.154e-05 ± 1.2e-06 kPa and the “vapor or sublimation pressure” value (438.63 K) was 1.3e-05 ± 1.3e-06 kPa. The “vapor or sublimation pressure” value (440.46 K) was 1.62e-05 ± 1.6e-06 kPa, the “vapor or sublimation pressure” value (442.17 K) was 2.096e-05 ± 2.1e-06 kPa and the “vapor or sublimation pressure” value (442.27 K) was 1.978e-05 ± 2e-06 kPa. The “vapor or sublimation pressure” value (445.93 K) was 2.924e-05 ± 2.9e-06 kPa, the “vapor or sublimation pressure” value (447.76 K) was 3.338e-05 ± 3.4e-06 kPa and the “vapor or sublimation pressure” value (453.11 K) was 6.104e-05 ± 6.1e-06 kPa.
For `Cn1c(N)cc(=O)[nH]c1=O` [6-amino-1-methyluracil], the “vapor or sublimation pressure” value (456.84 K) was 2.824e-05 ± 2.8e-06 kPa, the “vapor or sublimation pressure” value (458.65 K) was 3.188e-05 ± 3.2e-06 kPa and the “vapor or sublimation pressure” value (459.55 K) was 3.807e-05 ± 3.8e-06 kPa. For the same compound, the “vapor or sublimation pressure” value (462.22 K) was 4.621e-05 ± 4.6e-06 kPa, the “vapor or sublimation pressure” value (463.15 K) was 5.015e-05 ± 5e-06 kPa and the “vapor or sublimation pressure” value (464.07 K) was 5.429e-05 ± 5.5e-06 kPa. The “vapor or sublimation pressure” value (466.07 K) was 6.44e-05 ± 6.5e-06 kPa, the “vapor or sublimation pressure” value (466.1 K) was 6.38e-05 ± 6.4e-06 kPa and the “vapor or sublimation pressure” value (467.87 K) was 7.507e-05 ± 7.5e-06 kPa. For the same compound, the “vapor or sublimation pressure” value (468.75 K) was 7.967e-05 ± 8e-06 kPa, the “vapor or sublimation pressure” value (469.67 K) was 8.597e-05 ± 8.6e-06 kPa and the “vapor or sublimation pressure” value (470.56 K) was 9.083e-05 ± 9.1e-06 kPa.
For `Nc1cc(O)nc(O)n1` [6-aminouracil], the “vapor or sublimation pressure” value (478.6 K) was 1.394e-05 ± 1.4e-06 kPa, the “vapor or sublimation pressure” value (478.61 K) was 1.375e-05 ± 1.4e-06 kPa and the “vapor or sublimation pressure” value (480.4 K) was 1.661e-05 ± 1.7e-06 kPa. The “vapor or sublimation pressure” value (482.16 K) was 1.922e-05 ± 1.9e-06 kPa, the “vapor or sublimation pressure” value (483.92 K) was 2.132e-05 ± 2.2e-06 kPa and the “vapor or sublimation pressure” value (485.6 K) was 2.413e-05 ± 2.4e-06 kPa. For the same compound, the “vapor or sublimation pressure” value (485.7 K) was 2.415e-05 ± 2.4e-06 kPa, the “vapor or sublimation pressure” value (487.5 K) was 2.821e-05 ± 2.8e-06 kPa and the “vapor or sublimation pressure” value (489.24 K) was 3.158e-05 ± 3.2e-06 kPa. The “vapor or sublimation pressure” value (491 K) was 3.515e-05 ± 3.5e-06 kPa, the “vapor or sublimation pressure” value (491.02 K) was 3.534e-05 ± 3.5e-06 kPa and the “vapor or sublimation pressure” value (492.65 K) was 4.176e-05 ± 4.2e-06 kPa.
In the case of `Cn1c(N)cc(=O)n(C)c1=O` [6-amino-1,3-dimethyluracil], the “vapor or sublimation pressure” value (401.59 K) is reported as 9.9e-06 ± 1e-06 kPa, the “vapor or sublimation pressure” value (407.21 K) is reported as 1.673e-05 ± 1.7e-06 kPa and the “vapor or sublimation pressure” value (409 K) is reported as 1.845e-05 ± 1.9e-06 kPa. For the same compound, the “vapor or sublimation pressure” value (409.99 K) was 2.309e-05 ± 2.3e-06 kPa, the “vapor or sublimation pressure” value (410.8 K) was 2.478e-05 ± 2.5e-06 kPa and the “vapor or sublimation pressure” value (412.67 K) was 2.874e-05 ± 2.9e-06 kPa. For the same compound, the “vapor or sublimation pressure” value (412.82 K) was 3.133e-05 ± 3.1e-06 kPa, the “vapor or sublimation pressure” value (415.86 K) was 4.477e-05 ± 4.5e-06 kPa and the “vapor or sublimation pressure” value (416.43 K) was 3.968e-05 ± 4e-06 kPa. The “vapor or sublimation pressure” value (418.41 K) was 5.345e-05 ± 5.4e-06 kPa, the “vapor or sublimation pressure” value (420.22 K) was 6.082e-05 ± 6.1e-06 kPa and the “vapor or sublimation pressure” value (425.66 K) was 0.0001053 ± 1.1e-05 kPa.
With `Nc1c[nH]c(=O)[nH]c1=O` [2,4(1H,3H)-pyrimidinedione, 5-amino-] the “vapor or sublimation pressure” value (433.11 K) was 1.941e-05 ± 2e-06 kPa, the “vapor or sublimation pressure” value (433.16 K) was 2.072e-05 ± 2.1e-06 kPa and the “vapor or sublimation pressure” value (436.7 K) was 2.56e-05 ± 2.6e-06 kPa. The “vapor or sublimation pressure” value (438.65 K) was 3.333e-05 ± 3.4e-06 kPa, the “vapor or sublimation pressure” value (440.48 K) was 3.89e-05 ± 3.9e-06 kPa and the “vapor or sublimation pressure” value (442.32 K) was 4.794e-05 ± 4.8e-06 kPa. The “vapor or sublimation pressure” value (444.14 K) was 5.231e-05 ± 5.2e-06 kPa, the “vapor or sublimation pressure” value (445.07 K) was 5.373e-05 ± 5.4e-06 kPa and the “vapor or sublimation pressure” value (445.96 K) was 6.018e-05 ± 6e-06 kPa. For the same compound, the “vapor or sublimation pressure” value (445.97 K) was 5.707e-05 ± 5.7e-06 kPa, the “vapor or sublimation pressure” value (447.76 K) was 6.664e-05 ± 6.7e-06 kPa and the “vapor or sublimation pressure” value (453.1 K) was 9.97e-05 ± 1e-05 kPa.
